Measurements as given in patent US10202361B2, “Pyridazinones as herbicides” (E I DU PONT DE NEMOURS AND COMPANY, priority 2014, dated 2019).

How the values were obtained:
Test in all cases: Test D pre-/postemergence controlled growth environment herbicide test
Assay type in all cases: in vivo
Details in all cases: scale 0 to 100
[1] = tested on: oat, wild (wild oat, Avena fatua)
Text: (§1) Seeds of plant species selected from bluegrass (annual bluegrass, Poa annua), blackgrass (Alopecurus myosuroides), canarygrass (Phalaris minor), chickweed (common chickweed, Stellaria media), galium (catchweed bedstraw, Galium aparine), downy bromegrass (Bromus tectorum), field poppy (Papaver rhoeas), field violet (Viola arvensis), foxtail, green (green foxtail, Setaria viridis), deadnettle (henbit deadnettle, Lamium amplexicaule), ryegrass, Italian (Italian ryegrass, Lolium multiflorum), kochia (Kochia scoparia), lambsquarters (Chenopodium album), oilseed rape (Brassica napus), pigweed (Amaranthus retroflexus), chamomile (scentless chamomile, Matricaria inodora), Russian thistle (Salsola kali), speedwell (bird's-eye speedwell, Veronica persica), barley, spring (spring barley, Hordeum vulgare), wheat, spring (spring wheat, Triticum aestivum), buckwheat, wild (wild buckwheat, Polygonum convolvulus), mustard, wild (wild mustard, Sinapis arvensis), oat, wild (wild oat, Avena fatua), radish, wild (wild radish, Raphanus raphanistrum), windgrass (Apera spica-venti), barley, winter (winter barley, Hordeum vulgare), and wheat, winter (winter wheat, Triticum aestivum) were planted into a silt loam soil and treated preemergence with test chemicals formulated in a non-phytotoxic solvent mixture which included a surfactant.
(§2) At the same time, these species were planted in pots containing Redi-Earth® planting medium (Scotts Company, 14111 Scottslawn Road, Marysville, Ohio 43041) comprising spaghnum peat moss, vermiculite, wetting agent and starter nutrients and treated with postemergence applications of the test chemicals formulated in the same manner. Plants ranged in height from 2 to 18 cm (1- to 4-leaf stage). Treated plants and controls were maintained in a controlled growth environment for 14 to 21 d after which time all species were compared to controls and visually evaluated. Plant response ratings, summarized in Table D, are based on a scale of 0 to 100 where 0 is no effect and 100 is complete control. A dash (-) response means no test result.

[2] = tested on: field poppy (Papaver rhoeas)
Text: as §1, §2

[3] = tested on: foxtail, green (green foxtail, Setaria viridis)
Text: as §1, §2

[4] = tested on: barley, winter (winter barley, Hordeum vulgare)
Text: as §1, §2

[5] = tested on: deadnettle (henbit deadnettle, Lamium amplexicaule)
Text: as §1, §2

[6] = tested on: canarygrass (Phalaris minor)
Text: as §1, §2

[7] = tested on: lambsquarters (Chenopodium album)
Text: as §1, §2

[8] = tested on: kochia (Kochia scoparia)
Text: as §1, §2

[9] = tested on: blackgrass (Alopecurus myosuroides)
Text: as §1, §2

[10] = tested on: chickweed (common chickweed, Stellaria media)
Text: as §1, §2

[11] = tested on: bluegrass (annual bluegrass, Poa annua)
Text: as §1, §2

Measured: Plant response rating

Cc1cc(=O)n(-c2ccc(C(F)(F)F)cc2)nc1Cc1ccnc(C(F)(F)F)c1 [Compound 2, 5-methyl-2-[4-(trifluoromethyl)phenyl]-6-[[2-(trifluoromethyl)-4-pyridinyl]methyl]-3(2H)-pyridazinone]
15: [1]; Postemergence, 250 g ai/ha | [4]; Postemergence, 62 g ai/ha | [4]; Postemergence, 125 g ai/ha | [9]; Postemergence, 62 g ai/ha | [11]; Postemergence, 62 g ai/ha
100: [2]; Postemergence, 125 g ai/ha | [2]; Postemergence, 500 g ai/ha | [2]; Preemergence, 31 g ai/ha | [2]; Preemergence, 62 g ai/ha | [2]; Preemergence, 125 g ai/ha | [2]; Preemergence, 250 g ai/ha | [2]; Preemergence, 500 g ai/ha | [3]; Preemergence, 250 g ai/ha | [3]; Preemergence, 500 g ai/ha | [5]; Preemergence, 31 g ai/ha | [5]; Preemergence, 62 g ai/ha | [5]; Preemergence, 125 g ai/ha | [5]; Preemergence, 250 g ai/ha | [5]; Preemergence, 500 g ai/ha | [8]; Preemergence, 125 g ai/ha | [8]; Preemergence, 250 g ai/ha | [8]; Preemergence, 500 g ai/ha | [10]; Postemergence, 500 g ai/ha | [10]; Preemergence, 31 g ai/ha | [10]; Preemergence, 62 g ai/ha | [10]; Preemergence, 125 g ai/ha | [10]; Preemergence, 250 g ai/ha | [10]; Preemergence, 500 g ai/ha | [11]; Preemergence, 500 g ai/ha
90: [5]; Postemergence, 500 g ai/ha | [7]; Postemergence, 500 g ai/ha | [7]; Preemergence, 250 g ai/ha | [7]; Preemergence, 500 g ai/ha
35: [1]; Preemergence, 125 g ai/ha
45: [3]; Postemergence, 250 g ai/ha
60: [9]; Preemergence, 125 g ai/ha | [9]; Preemergence, 250 g ai/ha
30: [1]; Postemergence, 500 g ai/ha | [4]; Preemergence, 125 g ai/ha | [4]; Preemergence, 250 g ai/ha | [8]; Preemergence, 62 g ai/ha | [9]; Postemergence, 250 g ai/ha | [10]; Postemergence, 31 g ai/ha | [11]; Postemergence, 500 g ai/ha | [11]; Preemergence, 250 g ai/ha
10: [1]; Postemergence, 31 g ai/ha | [1]; Postemergence, 62 g ai/ha | [1]; Postemergence, 125 g ai/ha | [4]; Postemergence, 31 g ai/ha | [11]; Postemergence, 31 g ai/ha | [11]; Preemergence, 125 g ai/ha
80: [1]; Preemergence, 250 g ai/ha | [1]; Preemergence, 500 g ai/ha | [2]; Postemergence, 250 g ai/ha | [7]; Postemergence, 250 g ai/ha | [8]; Postemergence, 125 g ai/ha | [9]; Preemergence, 500 g ai/ha
50: [4]; Preemergence, 500 g ai/ha | [9]; Postemergence, 500 g ai/ha
85: [3]; Preemergence, 125 g ai/ha | [6]; Preemergence, 500 g ai/ha | [8]; Postemergence, 250 g ai/ha | [8]; Postemergence, 500 g ai/ha
75: [2]; Postemergence, 62 g ai/ha | [3]; Postemergence, 500 g ai/ha | [5]; Postemergence, 250 g ai/ha | [7]; Preemergence, 62 g ai/ha | [7]; Preemergence, 125 g ai/ha | [10]; Postemergence, 250 g ai/ha
5: [3]; Postemergence, 62 g ai/ha | [9]; Postemergence, 31 g ai/ha | [9]; Preemergence, 31 g ai/ha
25: [2]; Postemergence, 31 g ai/ha | [4]; Postemergence, 500 g ai/ha | [6]; Postemergence, 500 g ai/ha | [6]; Preemergence, 62 g ai/ha
40: [3]; Postemergence, 125 g ai/ha | [5]; Postemergence, 31 g ai/ha | [5]; Postemergence, 62 g ai/ha | [6]; Preemergence, 125 g ai/ha | [6]; Preemergence, 250 g ai/ha | [7]; Postemergence, 125 g ai/ha | [8]; Postemergence, 31 g ai/ha | [10]; Postemergence, 62 g ai/ha
20: [3]; Preemergence, 31 g ai/ha | [4]; Postemergence, 250 g ai/ha | [6]; Postemergence, 31 g ai/ha | [6]; Postemergence, 62 g ai/ha | [6]; Postemergence, 125 g ai/ha | [6]; Postemergence, 250 g ai/ha | [7]; Postemergence, 31 g ai/ha | [7]; Postemergence, 62 g ai/ha | [7]; Preemergence, 31 g ai/ha | [8]; Preemergence, 31 g ai/ha | [9]; Postemergence, 125 g ai/ha | [9]; Preemergence, 62 g ai/ha | [11]; Postemergence, 125 g ai/ha | [11]; Postemergence, 250 g ai/ha
70: [5]; Postemergence, 125 g ai/ha | [8]; Postemergence, 62 g ai/ha | [10]; Postemergence, 125 g ai/ha
0: [1]; Preemergence, 31 g ai/ha | [1]; Preemergence, 62 g ai/ha | [3]; Postemergence, 31 g ai/ha | [4]; Preemergence, 31 g ai/ha | [4]; Preemergence, 62 g ai/ha | [6]; Preemergence, 31 g ai/ha | [11]; Preemergence, 31 g ai/ha | [11]; Preemergence, 62 g ai/ha
